Patent US20230310472A1, “Stable Topical Formulations of 1(R)-4-(5-(4-Methoxy-3-Propoxphenyl)Pyridin-3-YL)-1,2-OX-Aborolan-2-OL” (Pfizer Inc., priority 2020, published 2023)

Assays:
Format in all cases: in vitro ADME
[1] = test system: rat hepatocytes; assay: In vitro metabolism in hepatocytes; conditions: non-radiolabeled
Source text: (§1) An assessment of the metabolism of non-radiolabeled PF-07038124 was 5 conducted in vitro using mouse, rat, dog, monkey and human hepatocytes. […] The primary routes of metabolism were hydrolysis/oxidation of the oxaborole ring to yield the diol (PF-07086920), glucuronidation of the pyridyl nitrogen, hydroxylation on the propyl group of the phenoxypropyl moiety, and demethylation of the methoxy group (shown below). All metabolites detected in mouse, rat, dog, and monkey hepatocytes were also observed in human hepatocytes.

[2] = test system: mouse hepatocytes; assay: In vitro metabolism in hepatocytes; conditions: non-radiolabeled
Source text: as §1

[3] = test system: human hepatocytes; assay: In vitro metabolism in hepatocytes; conditions: non-radiolabeled
Source text: as §1

[4] = test system: dog hepatocytes; assay: In vitro metabolism in hepatocytes; conditions: non-radiolabeled
Source text: as §1

[5] = test system: monkey hepatocytes; assay: In vitro metabolism in hepatocytes; conditions: non-radiolabeled
Source text: as §1

[6] = Stability on incubation in blood (LC-MS/MS); conditions: for concentration of PF-07038124 following incubation / concentration of PF-07086920 following incubation of PF-07038124: 1 hour at 1 μM; for chemical stability in blood: oxidation of the oxaborole ring to diol
Description: One of the major metabolic pathways in humans was formation of the oxaborole ring opened molecule, PF-07086920. […] Following incubation for 1 hour at 1 μM in human and rat blood, the concentration of PF-07038124 declined whereas the concentration of PF-07086920 increased in both human and rat blood as determined by liquid chromatography-tandem mass spectrometry. In addition to being a metabolite, PF-07086920 was also determined to be a degradant in the formulations comprising PF-07038124.

Row | SMILES | metabolism of PF-07038124 in hepatocytes [1] | metabolism of PF-07038124 in hepatocytes [2] | metabolism of PF-07038124 in hepatocytes [3] | metabolism of PF-07038124 in hepatocytes [4] | metabolism of PF-07038124 in hepatocytes [5] | concentration of PF-07038124 following incubation ([6]; human blood) | chemical stability in blood ([6]; human blood) | concentration of PF-07038124 following incubation ([6]; rat blood) | chemical stability in blood ([6]; rat blood) | concentration of PF-07086920 following incubation of PF-07038124 ([6]; human blood) | concentration of PF-07086920 following incubation of PF-07038124 ([6]; rat blood)
1 | CCCOc1cc(-c2cncc([C@@H]3COB(O)C3)c2)ccc1OC [PF-07038124, (R)-4-(5-(4-methoxy-3-propoxyphenyl)pyridin-3-yl)-1,2-oxaborolan-2-ol] | Moderate to extensive metabolism | Moderate to extensive metabolism | Moderate to extensive metabolism | Moderate to extensive metabolism | Moderate to extensive metabolism | declined | chemically unstable | declined | chemically unstable |  | 
2 | CCCOc1cc(-c2cncc(C(CO)CO)c2)ccc1OC [PF-07086920, 2-(5-(4-methoxy-3-propoxyphenyl)pyridin-3-yl)propane-1,3-diol] |  |  |  |  |  |  |  |  |  | increased | increased
